{
  "source": "patent US10954252B1",
  "about": "“Inhibitors of human immunodeficiency virus replication” (ViiV HEALTHCARE UK (NO.5) LIMITED, priority 2017, dated 2021)",
  "key": {"[1]": {"tested_on": "recombinant NL4-3 virus (nef section replaced with Renilla luciferase gene) in MT-2 cells", "assay": "HIV cell culture assay (antiviral activity, luciferase readout)", "format": "cell-based", "conditions": "Renilla, NL43, Table 1; MT-2 cells infected for 4-5 days with recombinant NL4-3 luciferase virus", "how_it_was_run": "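NL4-3 reporter virus carrying Renilla luciferase in place of part of nef, produced in 293T cells, was used to infect MT-2 cells for 4-5 days with serial compound dilutions. Luciferase activity was read with a live-cell substrate; EC50 derived from the median effect equation.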"}, "[2]": {"assay": "Compound cytotoxicity, XTT-based colorimetric assay", "format": "cell-based", "conditions": "human, uninfected MT2 cells, Table 1, day 4, XTT", "how_it_was_run": "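CC50 from uninfected MT2 cells run under the antiviral-assay protocol without virus. Viability read on day 4 by XTT colorimetric assay.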"}},
  "data": [
    {"smiles": "COc1ccc2c(=O)n(-c3ccc(Cl)c4c(NS(C)(=O)=O)nn(C)c34)c(C(Cc3cc(F)cc(F)c3)NC(=O)Cn3nc(C(F)F)c4c3C(F)(F)C3CC43)nc2n1", "note": "(stereo in doubt) [Example 13.1, N—((S)-1-(3-(4-chloro-1-methyl-3-(methylsulfonamido)-1H-indazol-7-yl)-7-methoxy-4-oxo-3,4-dihydropyrido[2,3-d]pyrimidin-2-yl)-2-(3,5-difluorophenyl)ethyl)-2-((3bS,4aR)-3-(difluoromethyl)-5,5-difluoro-3b,4,4a,5-tetrahydro-1H-cyclopropa[3,4]cyclopenta[1,2-c]pyrazol-1-yl)acetamide]", "values": [
      {"measurement": "EC50", "setting": "[1]", "value": 14300, "unit": "nM"},
      {"measurement": "CC50 at 4 days", "setting": "[2]", "value": "> 10000", "unit": "nM"}
    ]},
    {"smiles": "COc1ccc2c(=O)n(-c3ccc(Cl)c4c(NS(C)(=O)=O)nn(C)c34)c([C@H](Cc3cc(F)cc(F)c3)NC(=O)Cn3nc(C(F)F)c4c3C(F)(F)C3CC43)nc2n1", "note": "(stereo in doubt) [Example 13.2, N—((S)-1-(3-(4-chloro-1-methyl-3-(methylsulfonamido)-1H-indazol-7-yl)-7-methoxy-4-oxo-3,4-dihydropyrido[2,3-d]pyrimidin-2-yl)-2-(3,5-difluorophenyl)ethyl)-2-((3bS,4aR)-3-(difluoromethyl)-5,5-difluoro-3b,4,4a,5-tetrahydro-1H-cyclopropa[3,4]cyclopenta[1,2-c]pyrazol-1-yl)acetamide]", "values": [
      {"measurement": "EC50", "setting": "[1]", "value": 18, "unit": "nM"},
      {"measurement": "CC50 at 4 days", "setting": "[2]", "value": "> 10000", "unit": "nM"}
    ]},
    {"smiles": "Cn1nc(NS(C)(=O)=O)c2c(Cl)ccc(-c3cc4scnc4nc3C(Cc3cc(F)cc(F)c3)NC(=O)Cc3c[nH]c4ccc(O)cc34)c21", "note": "(centres unmarked) [Example 1.7, N-(1-(6-(4-chloro-1-methyl-3-(methylsulfonamido)-1H-indazol-7-yl)thiazolo[4,5-b]pyridin-5-yl)-2-(3,5-difluorophenyl)ethyl)-2-(5-hydroxy-1H-indol-3-yl)acetamide]", "values": [
      {"measurement": "EC50", "setting": "[1]", "value": 11, "unit": "nM"},
      {"measurement": "CC50 at 4 days", "setting": "[2]", "value": "> 100000", "unit": "nM"}
    ]},
    {"smiles": "Cn1nc(NS(C)(=O)=O)c2c(Cl)ccc(-c3cc4[nH]ncc4nc3[C@H](Cc3cc(F)cc(F)c3)NC(=O)Cn3nc(C(F)F)c4c3C(F)(F)[C@@H]3C[C@H]43)c21", "note": "[Example 3.7, N—((S)-1-(6-(4-chloro-1-methyl-3-(methylsulfonamido)-1H-indazol-7-yl)-1H-pyrazolo[4,3-b]pyridin-5-yl)-2-(3,5-difluorophenyl)ethyl)-2-((3bS,4aR)-3-(difluoromethyl)-5,5-difluoro-3b,4,4a,5-tetrahydro-1H-cyclopropa[3,4]cyclopenta[1,2-c]pyrazol-1-yl)acetamide]", "values": [
      {"measurement": "EC50", "setting": "[1]", "value": 1.2, "unit": "nM"},
      {"measurement": "CC50 at 4 days", "setting": "[2]", "value": 33900, "unit": "nM"}
    ]},
    {"smiles": "Cn1nc(NS(C)(=O)=O)c2c(Cl)ccc(-c3cc4[nH]ncc4nc3[C@@H](Cc3cc(F)cc(F)c3)NC(=O)Cn3nc(C(F)F)c4c3C(F)(F)[C@@H]3C[C@H]43)c21", "note": "[Example 3.8, N—((R)-1-(6-(4-chloro-1-methyl-3-(methylsulfonamido)-1H-indazol-7-yl)-1H-pyrazolo[4,3-b]pyridin-5-yl)-2-(3,5-difluorophenyl)ethyl)-2-((3bS,4aR)-3-(difluoromethyl)-5,5-difluoro-3b,4,4a,5-tetrahydro-1H-cyclopropa[3,4]cyclopenta[1,2-c]pyrazol-1-yl)acetamide]", "values": [
      {"measurement": "EC50", "setting": "[1]", "value": 21, "unit": "nM"},
      {"measurement": "CC50 at 4 days", "setting": "[2]", "value": 10200, "unit": "nM"}
    ]},
    {"smiles": "COc1ccc(-n2c([C@H](Cc3cc(F)cc(F)c3)NC(=O)Cn3nc(C(F)F)c4c3C(F)(F)[C@@H]3C[C@H]43)nc3ncccc3c2=O)cc1", "note": "[Example 9.1, 2-((3bS,4aR)-3-(difluoromethyl)-5,5-difluoro-3b,4,4a,5-tetrahydro-1H-cyclopropa[3,4]cyclopenta[1,2-c]pyrazol-1-yl)-N—((S)-2-(3,5-difluorophenyl)-1-(3-(4-methoxyphenyl)-4-oxo-3,4-dihydropyrido[2,3-d]pyrimidin-2-yl)ethyl)acetamide]", "values": [
      {"measurement": "EC50", "setting": "[1]", "value": 6.1, "unit": "nM"},
      {"measurement": "CC50 at 4 days", "setting": "[2]", "value": 8100, "unit": "nM"}
    ]},
    {"smiles": "COc1ccc(-n2c([C@H](Cc3cc(F)cc(F)c3)NC(=O)Cc3c[nH]c4ccc(O)cc34)nc3ncccc3c2=O)cc1", "note": "[Example 9.2, (S)—N-(2-(3,5-difluorophenyl)-1-(3-(4-methoxyphenyl)-4-oxo-3,4-dihydropyrido[2,3-d]pyrimidin-2-yl)ethyl)-2-(5-hydroxy-1H-indol-3-yl)acetamide]", "values": [
      {"measurement": "EC50", "setting": "[1]", "value": 4.7, "unit": "nM"},
      {"measurement": "CC50 at 4 days", "setting": "[2]", "value": "> 10000", "unit": "nM"}
    ]},
    {"smiles": "N#Cc1cccc(-c2cc3[nH]ncc3nc2[C@H](Cc2cc(F)cc(F)c2)NC(=O)Cn2nc(C(F)F)c3c2C(F)(F)[C@@H]2C[C@H]32)c1", "note": "[Example 10.2, N—((S)-1-(6-(3-cyanophenyl)-1H-pyrazolo[4,3-b]pyridin-5-yl)-2-(3,5-difluorophenyl)ethyl)-2-((3bS,4aR)-3-(difluoromethyl)-5,5-difluoro-3b,4,4a,5-tetrahydro-1H-cyclopropa[3,4]cyclopenta[1,2-c]pyrazol-1-yl)acetamide]", "values": [
      {"measurement": "EC50", "setting": "[1]", "value": 460, "unit": "nM"},
      {"measurement": "CC50 at 4 days", "setting": "[2]", "value": 9700, "unit": "nM"}
    ]},
    {"smiles": "NC(=O)c1cc(-c2cc3[nH]ncc3nc2[C@H](Cc2cc(F)cc(F)c2)NC(=O)Cn2nc(C(F)F)c3c2C(F)(F)[C@@H]2C[C@H]32)ccc1Cl", "note": "[Example 10.3, 2-Chloro-5-(5-((S)-1-(2-((3bS,4aR)-3-(difluoromethyl)-5,5-difluoro-3b,4,4a,5-tetrahydro-1H-cyclopropa[3,4]cyclopenta[1,2-c]pyrazol-1-yl)acetamido)-2-(3,5-difluorophenyl)ethyl)-1H-pyrazolo[4,3-b]pyridin-6-yl)benzamide]", "values": [
      {"measurement": "EC50", "setting": "[1]", "value": 84, "unit": "nM"},
      {"measurement": "CC50 at 4 days", "setting": "[2]", "value": "> 10000", "unit": "nM"}
    ]},
    {"smiles": "N#Cc1ccc(-c2cc3[nH]ncc3nc2[C@H](Cc2cc(F)cc(F)c2)NC(=O)Cn2nc(C(F)F)c3c2C(F)(F)[C@@H]2C[C@H]32)cc1F", "note": "[Example 10.4, N—((S)-1-(6-(4-cyano-3-fluorophenyl)-1H-pyrazolo[4,3-b]pyridin-5-yl)-2-(3,5-difluorophenyl)ethyl)-2-((3bS,4aR)-3-(difluoromethyl)-5,5-difluoro-3b,4,4a,5-tetrahydro-1H-cyclopropa[3,4]cyclopenta[1,2-c]pyrazol-1-yl)acetamide]", "values": [
      {"measurement": "EC50", "setting": "[1]", "value": 1150, "unit": "nM"},
      {"measurement": "CC50 at 4 days", "setting": "[2]", "value": 8240, "unit": "nM"}
    ]},
    {"smiles": "N#Cc1ccc(-c2cc3[nH]ncc3nc2[C@H](Cc2cc(F)cc(F)c2)NC(=O)Cn2nc(C(F)F)c3c2C(F)(F)[C@@H]2C[C@H]32)cc1", "note": "[Example 10.5, N—((S)-1-(6-(4-cyanophenyl)-1H-pyrazolo[4,3-b]pyridin-5-yl)-2-(3,5-difluorophenyl)ethyl)-2-((3bS,4aR)-3-(difluoromethyl)-5,5-difluoro-3b,4,4a,5-tetrahydro-1H-cyclopropa[3,4]cyclopenta[1,2-c]pyrazol-1-yl)acetamide]", "values": [
      {"measurement": "EC50", "setting": "[1]", "value": 300, "unit": "nM"},
      {"measurement": "CC50 at 4 days", "setting": "[2]", "value": 9350, "unit": "nM"}
    ]},
    {"smiles": "NC(=O)c1cc(-c2cc3[nH]ncc3nc2[C@H](Cc2cc(F)cc(F)c2)NC(=O)Cn2nc(C(F)F)c3c2C(F)(F)[C@@H]2C[C@H]32)ccc1F", "note": "[Example 10.6, 5-(5-((S)-1-(2-((3bS,4aR)-3-(difluoromethyl)-5,5-difluoro-3b,4,4a,5-tetrahydro-1H-cyclopropa[3,4]cyclopenta[1,2-c]pyrazol-1-yl)acetamido)-2-(3,5-difluorophenyl)ethyl)-1H-pyrazolo[4,3-b]pyridin-6-yl)-2-fluorobenzamide]", "values": [
      {"measurement": "EC50", "setting": "[1]", "value": 16, "unit": "nM"},
      {"measurement": "CC50 at 4 days", "setting": "[2]", "value": "> 10000", "unit": "nM"}
    ]},
    {"smiles": "CNC(=O)c1cc(-c2cc3[nH]ncc3nc2[C@H](Cc2cc(F)cc(F)c2)NC(=O)Cn2nc(C(F)F)c3c2C(F)(F)[C@@H]2C[C@H]32)ccc1F", "note": "[Example 10.7, 5-(5-((S)-1-(2-((3bS,4aR)-3-(difluoromethyl)-5,5-difluoro-3b,4,4a,5-tetrahydro-1H-cyclopropa[3,4]cyclopenta[1,2-c]pyrazol-1-yl)acetamido)-2-(3,5-difluorophenyl)ethyl)-1H-pyrazolo[4,3-b]pyridin-6-yl)-2-fluoro-N-methylbenzamide]", "values": [
      {"measurement": "EC50", "setting": "[1]", "value": 51, "unit": "nM"},
      {"measurement": "CC50 at 4 days", "setting": "[2]", "value": "> 10000", "unit": "nM"}
    ]}
  ]
}
